In patent US8741889B2, “Method of treating non-small cell lung cancer and colon cancer with gamma-secretase inhibitor” (Hoffmann-La Roche Inc, priority 2008, dated 2014):

What was measured:
H460a NSCLC xenografts = experiment: Antitumor efficacy in H460a NSCLC xenografts in nude mice; format: in vivo
Method: Female nude mice (10/group), obtained from Charles River Laboratories (Wilmington, Mass.) were used when they were approximately 13-14 weeks old and weighed approximately 23-25 grams. The health of all animals was determined daily by gross observation of experimental animals and by the analyses of blood samples of sentinel animals that were housed on the shared shelf racks. All animals were allowed to acclimate and recover from any shipping related stress for a minimum of 72 hours prior to experimental use. Autoclaved water and irradiated food [5058-ms Pico chow (mouse) Purina, Richmond, Ind.] were provided ad libitum, and the animals were maintained on a 12-hour light and dark cycle. Cages, bedding and water bottles were autoclaved before use and were changed weekly. Lovo human colorectal, Calu-6 NSCLC, and HCT116 colorectal cells were purchased from ATCC (Manassas, Va.). […] NSCLC cells were a gift from Dr. Jack Roth, MD Anderson Medical Center, Houston, Tex. Lovo cells were cultured in F12K culture medium, Calu-6 and […] were grown in Dulbecco's Modified Essential Medium (DMEM), and HCT116 cells were grown in McCoy's 5A medium. All culture media were supplemented with 10% (v/v) FBS and 1% (v/v) […] L-glutamine. […] Mice implanted with Lovo and Calu-6 xenografts were randomized on day 19 post-implant, mice implanted with HCT116 xenografts were randomized on day 20, while mice implanted with […] xenografts were randomized on day 12 post implant. […] Treatment for the Lovo and Calu-6 tumor studies began on Oct. 11, 2006 (day 19 post tumor cell implant), for the HCT116 study began on Oct. 16, 2006 (day 20 post tumor cell implant), and for the […] study on Oct. 11, 2006 (12 days post tumor cell implant). […] For the Lovo and Calu-6 studies, 21 day dosing ended on day 40 post-tumor cell implant. For intermittent dosing, treatment ended on day 26, was reinitiated on day 40, and ended day 47. For the HCT116 study, 21 day dosing ended on day 42 post tumor cell implant. Intermittent dosing ended on day 27, was reinitiated on day 42, and ended day 49. For the […] study, 21 day dosing ended early on day 27 post tumor cell implant, whereas for intermittent dosing, treatment ended day 19, and was not reinitiated (due to lack of efficacy). Efficacy data was graphically represented as the mean tumor volume ±standard error of the mean (SEM). […] Statistical analysis was determined by the rank sum test and One Way Anova and a post-hoc Bonferroni t-test (SigmaStat, version 2.0, Jandel Scientific, San Francisco, Calif.). […]

[1] = mouse, in vivo, 10 mg/kg
Method: Treatment for the MiaPaca2 study began on Feb. 8, 2007 (day 17 post tumor implant), for AsPC1 on Mar. 23, 2007 (day 9 post tumor implant), and for the BxPC3 study on May 30, 2007 (day 8 post tumor implant). Oral vehicle or the Compound (1) suspension was dosed using a sterile 1 cc syringe and 18-gauge gavage needle (0.2 ml/animal) once daily (qd) for 21-28 days, or using an intermittent schedule (7 days on, 7 days off, 7 days on (7+/7−/7+), 7 days on, 7 days off (7+/7−), 3 days on, 4 days off (3+/4−), or 14 days on, 14 days off (14+/14−)). Gemcitabine was administered to the mice intraperitoneally (ip) q3d (every 3 days) using a 1 cc syringe and 26 gauge needle.
Weight loss was graphically represented as percent change in mean group body weight, using the formula: ((W−W0)/W0)×100, where ‘W’ represents mean body weight of the treated group at a particular day, and ‘W0’ represents mean body weight of the same treated group at initiation of treatment.

SMILES: CC(C)(C(=O)NCC(F)(F)C(F)(F)F)C(=O)N[C@@H]1C(=O)Nc2ccccc2-c2ccccc21 [Compound (1), 2,2-Dimethyl-N—((S)-6-oxo-6,7-dihydro-5H-dibenzo[b,d]azepin-7-yl)-N′-(2,2,3,3,3-pentafluoro-propyl)-malonamide]
- % TGI (H460a NSCLC xenografts; 3 mg/kg po qd, dosing ended early): 0%
- % TGI (H460a NSCLC xenografts; 10 mg/kg po qd, dosing ended early): 0%
- % TGI (H460a NSCLC xenografts; 30 mg/kg po qd × 7 days, not reinitiated): 0%
- % TGI (H460a NSCLC xenografts; 60 mg/kg po qd × 7 days, not reinitiated): 0%
- mice with >20% body weight loss deemed toxicity-related [1]: one
